Target: T1, Human recombinant His-tagged PFKFB3 (Homo sapiens, UniProt Q16875)
T1 construct: His; made in house
Assay: PFKFB3 IC50 Determination Assay (in vitro kinase assay, modified ADP-Glo system)
Type: biochemical
Settings: ATP 20 μM and fructose-6-phosphate 2 μM (Km), 25 nM PFKFB3, 2 h, rt, ADP-Glo luminescence
Summary of the method: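 In-house His-tagged human PFKFB3 phosphorylates fructose-6-phosphate with ATP and substrate at Km; ADP measured by luminescence with 5x-diluted ADP-Glo reagents. Compounds tested at 10 concentrations, routinely 100 μM to 1 nM, in duplicate, 6.7% final DMSO. Data normalized to no-substrate control, expressed as % positive control; IC50 by four-parameter fit.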

T1 sequence (Q16875 whole entry): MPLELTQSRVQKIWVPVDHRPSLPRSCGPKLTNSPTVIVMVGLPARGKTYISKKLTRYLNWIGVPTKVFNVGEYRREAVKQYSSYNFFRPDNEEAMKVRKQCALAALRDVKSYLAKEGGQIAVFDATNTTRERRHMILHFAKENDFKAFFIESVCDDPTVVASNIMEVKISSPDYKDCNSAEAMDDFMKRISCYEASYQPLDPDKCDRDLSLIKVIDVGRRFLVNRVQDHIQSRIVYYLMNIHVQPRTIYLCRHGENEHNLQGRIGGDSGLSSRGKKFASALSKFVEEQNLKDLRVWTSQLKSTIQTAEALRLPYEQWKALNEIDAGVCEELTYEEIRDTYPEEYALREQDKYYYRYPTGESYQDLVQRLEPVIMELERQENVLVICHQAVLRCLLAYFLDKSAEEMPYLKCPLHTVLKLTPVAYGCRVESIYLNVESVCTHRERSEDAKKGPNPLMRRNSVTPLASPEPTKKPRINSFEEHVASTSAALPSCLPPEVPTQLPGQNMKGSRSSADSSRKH

Row | Structure (SMILES) | IC50
1 | CS(=O)(=O)c1ccccc1Nc1cc(-c2ccc3sc(N)nc3c2)c2nccnc2c1 [Example 190, 8-(2-Amino-1,3-benzothiazol-5-yl)-N-(2-methanesulfonylphenyl)quinoxalin-6-amine] | 1 to 1000 nM
2 | Cc1csc2ccc(-c3cc(Nc4ccccc4S(C)(=O)=O)cc4nccnc34)cc12 [Example 191, N-(2-Methanesulfonylphenyl)-8-(3-methyl-1-benzothiophen-5-yl)quinoxalin-6-amine] | 1 to 1000 nM
3 | Cn1ccc2ccc(-c3cc(Oc4cnccc4C(=O)O)cc4nccnc34)cc21 [Example 198, 3-{[8-(1-methyl-1H-indol-6-yl)quinoxalin-6-yl]oxy}pyridine-4-carboxylic acid] | 10000 to 100000 nM
4 | Cc1csc2ccc(-c3cc(Nc4ccccc4S(=O)(=O)NC4CCN(C)C4)cc4nccnc34)cc12 (stereo not shown) [Example 199, 2-{[8-(3-Methyl-1-benzothiophen-5-yl)quinoxalin-6-yl]amino}-N-(1-methylpyrrolidin-3-yl)benzene-1-sulfonamide] | 1 to 1000 nM
5 | CC(=O)Nc1cc2cc(-c3cc(Nc4cnccc4S(C)(=O)=O)cc4nccnc34)ccc2s1 [Example 200, N-(5-{7-[(4-Methanesulfonylpyridin-3-yl)amino]quinoxalin-5-yl}-1-benzothiophen-2-yl)acetamide] | 1000 to 10000 nM
6 | Cn1ccc2ccc(-c3cc(Nc4ncncc4Br)cc4nccnc34)cc21 [Example 204, N-(5-Bromopyrimidin-4-yl)-8-(1-methyl-1H-indol-6-yl)quinoxalin-6-amine] | 10000 to 100000 nM
7 | Cc1csc2ccc(-c3cc(Nc4cnccc4C(N)=O)cc4nccnc34)cc12 [Example 205, 3-{[8-(3-Methyl-1-benzothiophen-5-yl)quinoxalin-6-yl]amino}pyridine-4-carboxamide] | 1 to 1000 nM
8 | CC(=O)N1CC(NC(=O)c2ccncc2Nc2cc(-c3ccc4scc(C)c4c3)c3nccnc3c2)C1 [Example 206, N-(1-Acetylazetidin-3-yl)-3-{[8-(3-methyl-1-benzothiophen-5-yl)quinoxalin-6-yl]amino}pyridine-4-carboxamide] | 1 to 1000 nM
9 | Cn1ccc2ccc(-c3cc(Nc4cnccc4C(=O)Nc4cccnc4)cc4nccnc34)cc21 [Example 207, 3-{[8-(1-Methyl-1H-indol-6-yl)quinoxalin-6-yl]amino}-N-(pyridin-3-yl)pyridine-4-carboxamide] | 1 to 1000 nM
10 | Cn1ccc2ccc(-c3cc(Nc4ccccc4S(=O)(=O)NC4CCCOC4)cc4nccnc34)cc21 (stereo not shown) [Example 209, 2-{[8-(1-Methyl-1H-indol-6-yl)quinoxalin-6-yl]amino}-N-(oxan-3-yl)benzene-1-sulfonamide] | 1 to 1000 nM
11 | CS(=O)(=O)c1ccncc1Nc1cc(-c2ccc(S(F)(F)(F)(F)F)cc2)c2nccnc2c1 [Example 213, N-(4-Methanesulfonylpyridin-3-yl)-8-[4-(pentafluoro-λ^6-sulfanyl)phenyl]quinoxalin-6-amine] | 10000 to 100000 nM
12 | CN1CCC(NC(=O)c2ccncc2Nc2cc(-c3ccc(Br)cc3)c3nccnc3c2)C1 (stereo not shown) [Example 215, 3-{[8-(4-Bromophenyl)quinoxalin-6-yl]amino}-N-(1-methylpyrrolidin-3-yl)pyridine-4-carboxamide] | 1 to 1000 nM

Results, then the compound that gave them:

Row | IC50 | Structure (SMILES)
13 | 1 to 1000 nM | CS(=O)(=O)c1ccncc1Nc1cc(-c2ccc(F)cc2)c2nccnc2c1 [Example 188, 8-(4-Fluorophenyl)-N-(4-methanesulfonylpyridin-3-yl)quinoxalin-6-amine]
14 | 1000 to 10000 nM | CCc1cc(CC)cc(-c2cc(Nc3cnccc3S(C)(=O)=O)cc3nccnc23)c1 [Example 192, 8-(3,5-Diethylphenyl)-N-(4-methanesulfonylpyridin-3-yl)quinoxalin-6-amine]
15 | 1 to 1000 nM | Cc1cc2ccn(C)c2cc1-c1cc(Nc2cnccc2S(C)(=O)=O)cc2nccnc12 [Example 195, 8-(1,5-Dimethyl-1H-indol-6-yl)-N-(4-methanesulfonylpyridin-3-yl)quinoxalin-6-amine]
16 | 10000 to 100000 nM | CN(C)c1nc2cc(-c3cc(Nc4cnccc4S(C)(=O)=O)cc4nccnc34)ccc2s1 [Example 201, 8-[2-(Dimethylamino)-1,3-benzothiazol-5-yl]-N-(4-methanesulfonylpyridin-3-yl)quinoxalin-6-amine]
17 | 1000 to 10000 nM | CNc1nc2cc(-c3cc(Nc4cnccc4S(C)(=O)=O)cc4nccnc34)ccc2s1 [Example 202, N-(4-Methanesulfonylpyridin-3-yl)-8-[2-(methylamino)-1,3-benzothiazol-5-yl]quinoxalin-6-amine]
18 | 1 to 1000 nM | CS(=O)(=O)c1ccncc1Nc1cc(-c2ccc(Br)c(F)c2)c2nccnc2c1 [Example 211, 8-(4-Bromo-3-fluorophenyl)-N-(4-methanesulfonylpyridin-3-yl)quinoxalin-6-amine]
19 | 1 to 1000 nM | Cc1cc(Br)ccc1-c1cc(Nc2cnccc2S(C)(=O)=O)cc2nccnc12 [Example 212, 8-(4-Bromo-2-methylphenyl)-N-(4-methanesulfonylpyridin-3-yl)quinoxalin-6-amine]
